Compound in one experiment: CC1=CC(=C(N1C2=CC=C(C=C2)Cl)C)C(=O)CN3CCCCC3 [IU1-47]
As to the kind of experiment: relative viability (nuclei count vs DMSO), 5 days (fraction); higher = more cells survive. In outline:
(§1)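 For viability, nuclei in each treated well were divided by nuclei in vehicle wells and the median across plates was taken. Lung cancer cell lines in 1536-well plates were pinned with five library-drug doses (not always all listed) spaced by √10, cultured 5 days without medium change, and imaged at 4× after Hoechst staining, with plates passing only at control CV below 25% and at least one doubling.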

Compound in a further experiment: Cc1nc(C(=O)NCC(=O)O)c(O)c2ccc(Oc3ccccc3)cc12 [FG-4592]
The experiment is described as above. The procedure, abridged:
as §1

We go through 14 cell lines from the supplement of paper PMC10307832.

Regarding NCI-H2126, the relative viability with IU1-47 (0.08 µM) stood at 1.09; with IU1-47 (0.253 µM), 1.02; with IU1-47 (0.8 µM), 1.1; with IU1-47 (2.53 µM), 0.698; with IU1-47 (8 µM), 0.957; with FG-4592 (0.08 µM), 0.969. The relative viability in the experiment with FG-4592 (0.253 µM) stood at 0.906; in the experiment with FG-4592 (0.8 µM) it was 0.82; with FG-4592 (2.53 µM), 0.846; with FG-4592 (8 µM), 0.901.

On to NCI-H2170, for which the relative viability is 1.24 in the experiment with IU1-47 (0.08 µM); 1.15 in the experiment with IU1-47 (0.253 µM); 1.07 with IU1-47 (0.8 µM); 0.996 with IU1-47 (2.53 µM); 1.04 in the experiment with IU1-47 (8 µM); 0.911 with FG-4592 (0.08 µM). The relative viability is 0.975 with FG-4592 (0.253 µM), 0.851 with FG-4592 (0.8 µM), 0.921 with FG-4592 (2.53 µM) and 0.718 with FG-4592 (8 µM).

Regarding NCI-H2228, the relative viability with IU1-47 (0.08 µM) came to 1.04; in the experiment with IU1-47 (0.253 µM), 1.14; with IU1-47 (0.8 µM), 1.06; with IU1-47 (2.53 µM), 0.986; with IU1-47 (8 µM), 0.709; in the experiment with FG-4592 (0.08 µM), 0.905. Also, the relative viability with FG-4592 (0.253 µM) stood at 0.868; with FG-4592 (0.8 µM) it was 0.899; with FG-4592 (2.53 µM) it was 1.02; with FG-4592 (8 µM), 0.644.

Consider NCI-H2342, for which the relative viability with IU1-47 (0.08 µM) was 1.03; with IU1-47 (0.253 µM) it was 1.03; with IU1-47 (0.8 µM) it was 1.28; with IU1-47 (2.53 µM), 1.15; with IU1-47 (8 µM) it was 0.985; with FG-4592 (0.08 µM) it was 0.985. Also, the relative viability with FG-4592 (0.253 µM) worked out at 0.97; in the experiment with FG-4592 (0.8 µM), 0.839; in the experiment with FG-4592 (2.53 µM), 0.812; with FG-4592 (8 µM), 0.82.

As for NCI-H2347, the relative viability with IU1-47 (0.08 µM) is 1.11; with IU1-47 (0.253 µM) it was 1.02; with IU1-47 (0.8 µM), 1.04; in the experiment with IU1-47 (2.53 µM) it was 0.828; in the experiment with IU1-47 (8 µM) it was 1.01; in the experiment with FG-4592 (0.08 µM), 0.873. Also, the relative viability in the experiment with FG-4592 (0.253 µM) is 0.738; with FG-4592 (0.8 µM), 0.955; with FG-4592 (2.53 µM), 0.936; in the experiment with FG-4592 (8 µM), 1.05.

NCI-H2405: the relative viability in the experiment with IU1-47 (0.08 µM) is 1.07; with IU1-47 (0.253 µM), 1.06; in the experiment with IU1-47 (0.8 µM), 1.03; with IU1-47 (2.53 µM) it was 0.863; with IU1-47 (8 µM), 1.01; with FG-4592 (0.08 µM), 0.869. Also, the relative viability with FG-4592 (0.253 µM) stood at 0.826; with FG-4592 (0.8 µM), 0.912; with FG-4592 (2.53 µM) it was 0.928; with FG-4592 (8 µM), 0.944.

In the case of NCI-H3122, the relative viability with IU1-47 (0.08 µM) worked out at 1.07; with IU1-47 (0.253 µM), 1.07; with IU1-47 (0.8 µM), 1.01; in the experiment with IU1-47 (2.53 µM) it was 1.04; with IU1-47 (8 µM) it was 0.974; in the experiment with FG-4592 (0.08 µM) it was 1.03. Also, the relative viability with FG-4592 (0.253 µM) is 0.957; in the experiment with FG-4592 (0.8 µM) it was 1.06; with FG-4592 (2.53 µM), 1.07; with FG-4592 (8 µM) it was 1.03.

With PC-3 [JPC-3], the relative viability is 1.09 in the experiment with IU1-47 (0.08 µM); 1.06 with IU1-47 (0.253 µM); 1.11 in the experiment with IU1-47 (0.8 µM); 0.705 in the experiment with IU1-47 (2.53 µM); 0.982 with IU1-47 (8 µM); 1.06 with FG-4592 (0.08 µM). Also, the relative viability with FG-4592 (0.253 µM) is 0.948; in the experiment with FG-4592 (0.8 µM), 0.987; with FG-4592 (2.53 µM), 1.07; with FG-4592 (8 µM) it was 1.02.

As for PC-14, the relative viability is 1.04 with IU1-47 (0.08 µM); 1.05 in the experiment with IU1-47 (0.253 µM); 1.09 with IU1-47 (0.8 µM); 0.84 with IU1-47 (2.53 µM); 0.933 with IU1-47 (8 µM); 1.07 with FG-4592 (0.08 µM). Also, the relative viability is 0.927 with FG-4592 (0.253 µM), 0.99 in the experiment with FG-4592 (0.8 µM), 0.982 with FG-4592 (2.53 µM) and 0.97 in the experiment with FG-4592 (8 µM).

RERF-LC-KJ: the relative viability in the experiment with IU1-47 (0.08 µM) was determined as 1.06; with IU1-47 (0.253 µM) it was 1.04; with IU1-47 (0.8 µM), 1.14; with IU1-47 (2.53 µM), 0.902; with IU1-47 (8 µM), 0.946; with FG-4592 (0.08 µM), 1.03. The relative viability with FG-4592 (0.253 µM) turned out to be 0.922; with FG-4592 (0.8 µM) it was 1; with FG-4592 (2.53 µM), 1.02; in the experiment with FG-4592 (8 µM) it was 0.906.

Turning to SK-LU-1, the relative viability in the experiment with IU1-47 (0.08 µM) was found to be 1.14; with IU1-47 (0.253 µM), 1.17; with IU1-47 (0.8 µM), 1.05; in the experiment with IU1-47 (2.53 µM), 0.98; with IU1-47 (8 µM), 1.06; in the experiment with FG-4592 (0.08 µM), 0.882. The relative viability with FG-4592 (0.253 µM) is 0.748; with FG-4592 (0.8 µM) it was 0.898; with FG-4592 (2.53 µM), 0.899; with FG-4592 (8 µM), 0.879.

With SK-MES-1, the relative viability in the experiment with IU1-47 (0.08 µM) stood at 1.12; with IU1-47 (0.253 µM) it was 1.22; with IU1-47 (0.8 µM) it was 1.02; with IU1-47 (2.53 µM) it was 1.1; with IU1-47 (8 µM) it was 1.06; in the experiment with FG-4592 (0.08 µM), 0.991. The relative viability came out at 0.939 with FG-4592 (0.253 µM), 0.969 in the experiment with FG-4592 (0.8 µM), 0.981 in the experiment with FG-4592 (2.53 µM) and 0.983 in the experiment with FG-4592 (8 µM).

SW 900: the relative viability in the experiment with IU1-47 (0.08 µM) turned out to be 0.771; with IU1-47 (0.253 µM), 0.589; with IU1-47 (0.8 µM) it was 0.82; in the experiment with IU1-47 (2.53 µM) it was 0.68; with IU1-47 (8 µM) it was 0.742; with FG-4592 (0.08 µM), 0.699. The relative viability in the experiment with FG-4592 (0.253 µM) was determined as 0.954; with FG-4592 (0.8 µM), 0.514; with FG-4592 (2.53 µM), 0.913; in the experiment with FG-4592 (8 µM), 1.13.

For the cell line SW 1573, the relative viability was found to be 1.03 with IU1-47 (0.08 µM); 1.05 with IU1-47 (0.253 µM); 0.958 with IU1-47 (0.8 µM); 0.857 with IU1-47 (2.53 µM); 0.934 with IU1-47 (8 µM); 0.936 with FG-4592 (0.08 µM). For the same cell line, the relative viability in the experiment with FG-4592 (0.253 µM) was 0.79; in the experiment with FG-4592 (0.8 µM), 0.909; with FG-4592 (2.53 µM), 0.994; with FG-4592 (8 µM), 0.896.
